Measured values taken from ChEMBL document CHEMBL5528039, “Discovery of a Macrocyclic Influenza Cap-Dependent Endonuclease Inhibitor” (J Med Chem, 2024).

Experiments:
Influenza A virus [1] = test: Selectivity ratio of EC50 for antiviral activity against Influenza A virus A/PR/8/34 PA-I38T infected in MDCK cells to EC50 for antiviral activity against Influenza A virus A/PR/8/34 (H1N1) infected in MDCK cells; format: functional
Influenza A virus [2] = test: Antiviral activity against Influenza A virus A/PR/8/34 PA-I38T infected in MDCK cells assessed as reduction in virus-induced cytopathic effect incubated for 5 days by CCK8 based microplate spectrophotometric analysis; format: functional, organism-based; conditions: for EC50: mdck; for EC90: time 5 day
Influenza A virus [3] = test: Antiviral activity against baloxavir-resistant Influenza A virus A/PR/8/34 infected in MDCK cells assessed as reduction in virus-induced cytopathic effect incubated for 5 days by CCK8 based microplate spectrophotometric analysis; format: functional, organism-based; conditions: for EC50: mdck; for EC90: time 5 day
Influenza A virus [4] = test: Selectivity ratio of EC50 for antiviral activity against baloxavir-resistant Influenza A virus A/PR/8/34 infected in MDCK cells to EC50 for antiviral activity against Influenza A virus A/PR/8/34 (H1N1) infected in MDCK cells; format: functional

CN1C(=O)c2c(O)c(=O)ccn2N2[C@H](c3ccc(F)cc3)c3cc(F)c(F)cc3OCC[C@@H]12
Ratio EC50 (Influenza A virus [1]): 14
EC50 (Influenza A virus [2]): 193 nM
EC90 (Influenza A virus [2]): 370 nM

CN1C(=O)c2c(O)c(=O)ccn2N2[C@H](c3ccccc3)c3cc(F)c(F)cc3OCC[C@@H]12
Ratio EC50 (Influenza A virus [1]): 9.2
EC50 (Influenza A virus [3]): 66 nM
EC90 (Influenza A virus [3]): 113 nM
Ratio EC50 (Influenza A virus [4]): 9.2
EC50 (Influenza A virus [2]): 66 nM
EC90 (Influenza A virus [2]): 113 nM

CN1C(=O)c2c(O)c(=O)ccn2N2[C@H](c3ccccc3F)c3cc(F)c(F)cc3OCC[C@@H]12
Ratio EC50 (Influenza A virus [1]): 7.2
EC50 (Influenza A virus [2]): 79 nM
EC90 (Influenza A virus [2]): 123 nM

CN1C(=O)c2c(O)c(=O)ccn2N2[C@H](c3ccccc3)c3ccccc3OCC[C@@H]12
Ratio EC50 (Influenza A virus [1]): 15
EC50 (Influenza A virus [2]): 214 nM
EC90 (Influenza A virus [2]): 336 nM

CN1C(=O)c2c(O)c(=O)ccn2N2[C@H](c3ccc(F)c(F)c3)c3cc(F)c(F)cc3OCC[C@@H]12
Ratio EC50 (Influenza A virus [1]): 8.4
EC50 (Influenza A virus [2]): 211 nM
EC90 (Influenza A virus [2]): 393 nM

CC(C)N1C(=O)c2c(O)c(=O)ccn2N2[C@H](c3ccccc3)c3ccccc3OCC[C@@H]12 (racemic)
Ratio EC50 (Influenza A virus [1]): 8.2
EC50 (Influenza A virus [2]): 435 nM
EC90 (Influenza A virus [2]): 675 nM

CN1C(=O)c2c(O)c(=O)ccn2N2[C@H](c3ccccc3Br)c3cc(F)c(F)cc3OCC[C@@H]12 (racemic)
Ratio EC50 (Influenza A virus [1]): 15
EC50 (Influenza A virus [2]): 166 nM
EC90 (Influenza A virus [2]): 344 nM

CN1C(=O)c2c(O)c(=O)ccn2N2[C@H](c3ccccc3)c3ccc(F)c(F)c3OCC[C@@H]12 (racemic)
Ratio EC50 (Influenza A virus [1]): 10
EC50 (Influenza A virus [2]): 512 nM
EC90 (Influenza A virus [2]): 795 nM

O=C1c2c(O)c(=O)ccn2N([C@@H]2c3ccccc3SCc3c2ccc(F)c3F)[C@@H]2COCCN12 [BALOXAVIR]
Ratio EC50 (Influenza A virus [1]): 68
EC50 (Influenza A virus [3]): 142 nM
EC90 (Influenza A virus [3]): 232 nM
Ratio EC50 (Influenza A virus [4]): 68
EC50 (Influenza A virus [2]): 142 nM
EC90 (Influenza A virus [2]): 232 nM
